Values belong to the molecule of their own block, whether it stands above or below them.
Key:
[1] = LogP measurement by HPLC on reversed phase columns (EEC directive 79/831 Annex V.A8); format: physicochemical
Procedure: If more than one LogP value is available within the same method, all the values are given and separated by "+".
Lambda-max-values were determined using UV-spectra from 200 nm to 400 nm and the peak values of the chromatographic signals.

[2] = test system: Puccinia recondita; test: in vivo preventive test on Puccinia recondita (brown rust on wheat); settings: for pest or weed control at 500 ppm: Puccinia recondita, 264 h, 500 ppm of active ingredient, young wheat plants sprayed, inoculated after 24 hours, evaluated 11 days after the inoculation, read-out: efficacy; for efficacy: 500 ppm
Procedure: Example: in vivo preventive test on Puccinia recondita (brown rust on wheat)
(§1) The active ingredients were made soluble and homogenized in a mixture of Dimethyl sulfoxide/Acetone/ /Tween® 80 and then diluted in water to the desired concentration.
The young plants of wheat were treated by spraying the active ingredient prepared as described above. Control plants were treated only with an aqueous solution of Acetone/Dimethyl sulfoxide/ Tween® 80.
After 24 hours, the plants were contaminated by spraying the leaves with an aqueous suspension of Puccinia recondita spores. The contaminated wheat plants were incubated for 24 hours at 20°C and at 100% relative humidity and then for 10 days at 20°C and at 70-80% relative humidity.
The test was evaluated 11 days after the inoculation. 0% means an efficacy which corresponds to that of the control plants while an efficacy of 100% means that no disease was observed.

[3] = test system: Sphaerotheca fuliginea; test: in vivo preventive test on Sphaerotheca fuliginea (powdery mildew on cucurbits); settings: 500 ppm of active ingredient, young gherkin plants sprayed, inoculated after 24 hours, evaluated 8 days after the inoculation; for pest or weed control at 500 ppm: Podosphaera fuliginea, 192 h, read-out: efficacy
Procedure: Example: in vivo preventive test on Sphaerotheca fuliginea (powdery mildew on cucurbits)
as §1
The young plants of gherkin were treated by spraying the active ingredient prepared as described above. Control plants were treated only with an aqueous solution of Acetone/Dimethyl sulfoxide/ […].
After 24 hours, the plants were contaminated by spraying the leaves with an aqueous suspension of Sphaerotheca fuliginea spores. The contaminated gherkin plants were incubated for 8 days at 20°C and at 70-80% relative humidity.
The test was evaluated 8 days after the inoculation. 0% means an efficacy which corresponds to that of the control plants while an efficacy of 100% means that no disease was observed.

[4] = test system: Phakospora pachyrhizi; test: in vivo preventive test on Phakospora pachyrhizi (soybean rust); settings: for pest or weed control at 500 ppm: Glycine max, 288 h, 500 ppm of active ingredient, young soybean plants sprayed, inoculated after 24 hours, evaluated 12 days after the inoculation, read-out: efficacy; for efficacy: 500 ppm
Procedure: Example: in vivo preventive test on Phakospora pachyrhizi (soybean rust)
as §1
The young plants of soybean were treated by spraying the active ingredient prepared as described above. Control plants were treated only with an aqueous solution of Acetone/Dimethyl sulfoxide/ […].
After 24 hours, the plants were contaminated by spraying the leaves with an aqueous suspension of Phakosporapachyrhizi spores. The contaminated soybean plants were incubated for 24 hours at 24°C and at 100% relative humidity and then for 11 days at 24°C and at 70-80% relative humidity.
The test was evaluated 12 days after the inoculation. 0% means an efficacy which corresponds to that of the control plants while an efficacy of 100% means that no disease was observed.

[5] = reversed phase HPLC column, method [a]: LC-UV, acidic range, 0.1% formic acid in water and acetonitrile as eluent
[6] = reversed phase HPLC column, method [b]: LC-UV, neutral range, 0.001 molar ammonium acetate solution in water and acetonitrile as eluent
[7] = method [a]: LC-UV, acidic range, 0.1% formic acid in water and acetonitrile as eluent
[8] = method [b]: LC-UV, neutral range, 0.001 molar ammonium acetate solution in water and acetonitrile as eluent

Structure (SMILES): CCN(C)C=Nc1cc(C)c(Oc2ccnc(SC3CCCC3)n2)cc1C [I.012, N'-[4-(2-cyclopentylsulfanylpyrimidin-4-yl)oxy-2,5-dimethylphenyl]-N-ethyl-N-methylmethan-imidamide]
- chromatographic logP [1, 5]: 1.75
- pest or weed control at 500 ppm [2]: ≥ 70%
- pest or weed control at 500 ppm [3]: ≥ 70%
- pest or weed control at 500 ppm [4]: ≥ 70%

Structure (SMILES): CCN(C)C=Nc1cc(Br)c(Oc2ccnc(C(F)(F)F)n2)cc1C [I.017, N'-[5-bromo-2-methyl-4-[2-(trifluoromethyl)pyrimidin-4-yl]oxyphenyl]-N-ethyl-N-methyl-methanimidamide]
- chromatographic logP [1, 5]: 1.32
- chromatographic logP [1, 6]: 4.08
- pest or weed control at 500 ppm [2]: ≥ 70%
- pest or weed control at 500 ppm [3]: ≥ 70%
- pest or weed control at 500 ppm [4]: ≥ 70%

Structure (SMILES): CCN(C)C=Nc1cc(Br)c(Oc2cc(SC(C)(C)C)nc(C)n2)cc1C [I.018, N'-[5-bromo-4-(6-tert-butylsulfanyl-2-methylpyrimidin-4-yl)oxy-2-methylphenyl]-N-ethyl-N-methylmethanimidamide]
- chromatographic logP [1, 5]: 2.11
- chromatographic logP [1, 6]: 5.99
- pest or weed control at 500 ppm [2]: ≥ 70%
- pest or weed control at 500 ppm [3]: ≥ 70%
- pest or weed control at 500 ppm [4]: ≥ 70%

Structure (SMILES): CCSc1nc(C)cc(Oc2cc(C)c(N=CN(C)CC)cc2C)n1 [I.019, N-ethyl-N'-[4-(2-ethylsulfanyl-6-methylpyrimidin-4-yl)oxy-2,5-dimethylphenyl]-N-methyl-methanimidamide]
- chromatographic logP [1, 5]: 1.52
- pest or weed control at 500 ppm [2]: ≥ 70%
- pest or weed control at 500 ppm [3]: ≥ 70%
- pest or weed control at 500 ppm [4]: ≥ 70%

Structure (SMILES): CCCSc1nc(C)cc(Oc2cc(C)c(N=CN(C)CC)cc2C)n1 [I.020, N'-[2,5-dimethyl-4-(6-methyl-2-propylsulfanylpyrimidin-4-yl)oxyphenyl]-N-ethyl-N-methyl-methanimidamide]
- chromatographic logP [1, 5]: 1.69
- pest or weed control at 500 ppm [2]: ≥ 70%
- pest or weed control at 500 ppm [3]: ≥ 70%
- pest or weed control at 500 ppm [4]: ≥ 70%

Structure (SMILES): CCN(C)C=Nc1cc(C)c(Oc2cc(C)nc(SCC(C)C)n2)cc1C [I.021, N'-[2,5-dimethyl-4-[6-methyl-2-(2-methylpropylsulfanyl)pyrimidin-4-yl]oxyphenyl]-N-ethyl-N-methylmethanimidamide]
- chromatographic logP [1, 5]: 1.84
- pest or weed control at 500 ppm [2]: ≥ 70%
- pest or weed control at 500 ppm [3]: ≥ 70%
- pest or weed control at 500 ppm [4]: ≥ 70%

Structure (SMILES): CCN(C)C=Nc1cc(C)c(Oc2cc(C)nc(SC(C)C)n2)cc1C [I.022, N'-[2,5-dimethyl-4-(6-methyl-2-propan-2-ylsulfanylpyrimidin-4-yl)oxyphenyl]-N-ethyl-N-methylmethanimidamide]
- chromatographic logP [1, 5]: 1.69
- pest or weed control at 500 ppm [2]: ≥ 70%
- pest or weed control at 500 ppm [3]: ≥ 70%
- pest or weed control at 500 ppm [4]: ≥ 70%

Structure (SMILES): CCN(C)C=Nc1cc(C)c(Oc2cc(SC(C)(C)C)nc(C)n2)cc1C [I.023, N'-[4-(6-tert-butylsulfanyl-2-methylpyrimidin-4-yl)oxy-2,5-dimethylphenyl]-N-ethyl-N-methyl-methanimidamide]
- chromatographic logP [1, 5]: 1.99
- pest or weed control at 500 ppm [2]: ≥ 70%
- pest or weed control at 500 ppm [3]: ≥ 70%
- pest or weed control at 500 ppm [4]: ≥ 70%

Structure (SMILES): CCC(C)Sc1cc(Oc2cc(C)c(N=CN(C)CC)cc2C)nc(C)n1 (centres unmarked) [I.024, N'-[4-(6-butan-2-ylsulfanyl-2-methylpyrimidin-4-yl)oxy-2,5-dimethylphenyl]-N-ethyl-N-methyl-methanimidamide]
- chromatographic logP [1, 5]: 2.02
- chromatographic logP [1, 6]: 5.98
- pest or weed control at 500 ppm [2]: ≥ 70%
- pest or weed control at 500 ppm [3]: ≥ 70%
- pest or weed control at 500 ppm [4]: ≥ 70%

Structure (SMILES): CCN(C)C=Nc1cc(C(F)F)c(Oc2ccnc(SCC(C)C)n2)cc1C [I.025, N'-[5-(difluoromethyl)-2-methyl-4-[2-(2-methylpropylsulfanyl)pyrimidin-4-yl]oxyphenyl]-N-ethyl-N-methylmethanimidamide]
- chromatographic logP [1, 5]: 1.69
- pest or weed control at 500 ppm [2]: ≥ 70%
- pest or weed control at 500 ppm [3]: ≥ 70%
- pest or weed control at 500 ppm [4]: ≥ 70%

Structure (SMILES): CCN(C)C=Nc1cc(C)c(Oc2ccnc(SC(C)C)n2)cc1C [I.028, N'-[2,5-dimethyl-4-(2-propan-2-ylsulfanylpyrimidin-4-yl)oxyphenyl]-N-ethyl-N-methylmethan-imidamide]
- chromatographic logP [1, 5]: 1.45
- chromatographic logP [1, 6]: 4.54
- pest or weed control at 500 ppm [2]: ≥ 70%
- pest or weed control at 500 ppm [3]: ≥ 70%
- pest or weed control at 500 ppm [4]: ≥ 70%

Structure (SMILES): CCN(C)C=Nc1cc(C)c(Oc2ccnc(C(F)(F)F)n2)cc1C [I.030, N'-[2,5-dimethyl-4-[2-(trifluoromethyl)pyrimidin-4-yl]oxyphenyl]-N-ethyl-N-methylmethan-imidamide]
- chromatographic logP [1, 5]: 1.24
- chromatographic logP [1, 6]: 3.82
- pest or weed control at 500 ppm [2]: ≥ 70%
- pest or weed control at 500 ppm [3]: ≥ 70%
- pest or weed control at 500 ppm [4]: ≥ 70%

Structure (SMILES): CCN(C)C=Nc1cc(C)c(Oc2ccnc(SCC(F)(F)F)n2)cc1C [I.031, N'-[2,5-dimethyl-4-[2-(2,2,2-trifluoroethylsulfanyl)pyrimidin-4-yl]oxyphenyl]-N-ethyl-N-methylmethanimidamide]
- chromatographic logP [1, 5]: 1.52
- chromatographic logP [1, 6]: 4.37
- pest or weed control at 500 ppm [2]: ≥ 70%
- pest or weed control at 500 ppm [3]: ≥ 70%
- pest or weed control at 500 ppm [4]: ≥ 70%

Structure (SMILES): CCN(C)C=Nc1cc(C)c(Oc2cc(C)nc(SC)n2)cc1C [I.033, N'-[2,5-dimethyl-4-(6-methyl-2-methylsulfanylpyrimidin-4-yl)oxyphenyl]-N-ethyl-N-methyl-methanimidamide]
- chromatographic logP [1, 5]: 1.34
- chromatographic logP [1, 6]: 4.16
- pest or weed control at 500 ppm [2]: ≥ 70%
- pest or weed control at 500 ppm [3]: ≥ 70%
- pest or weed control at 500 ppm [4]: ≥ 70%

Further lines, with some results ahead:

- chromatographic logP [1, 5]: 1.58
Structure (SMILES): CCN(C)C=Nc1cc(C)c(Oc2ccnc(SCCC(F)(F)F)n2)cc1C [I.013, N'-[2,5-dimethyl-4-[2-(3,3,3-trifluoropropylsulfanyl)pyrimidin-4-yl]oxyphenyl]-N-ethyl-N-methylmethanimidamide]
- pest or weed control at 500 ppm [2]: ≥ 70%
- pest or weed control at 500 ppm [3]: ≥ 70%
- pest or weed control at 500 ppm [4]: ≥ 70%

- chromatographic logP [1, 5]: 1.6
- chromatographic logP [1, 6]: 4.78
Structure (SMILES): CCN(C)C=Nc1cc(Br)c(Oc2ccnc(SC(C)C)n2)cc1C [I.014, N'-[5-bromo-2-methyl-4-(2-propan-2-ylsulfanylpyrimidin-4-yl)oxyphenyl]-N-ethyl-N-methyl-methanimidamide]
- pest or weed control at 500 ppm [2]: ≥ 70%
- pest or weed control at 500 ppm [3]: ≥ 70%
- pest or weed control at 500 ppm [4]: ≥ 70%

- chromatographic logP [1, 5]: 1.66
- chromatographic logP [1, 6]: 4.86
Structure (SMILES): CCCSc1nccc(Oc2cc(C)c(N=CN(C)CC)cc2Br)n1 [I.015, N'-[5-bromo-2-methyl-4-(2-propylsulfanylpyrimidin-4-yl)oxyphenyl]-N-ethyl-N-methylmethan-imidamide]
- pest or weed control at 500 ppm [2]: ≥ 70%
- pest or weed control at 500 ppm [3]: ≥ 70%
- pest or weed control at 500 ppm [4]: ≥ 70%

- chromatographic logP [1, 5]: 1.46
- chromatographic logP [1, 6]: 4.44
Structure (SMILES): CCSc1nccc(Oc2cc(C)c(N=CN(C)CC)cc2Br)n1 [I.016, N'-[5-bromo-4-(2-ethylsulfanylpyrimidin-4-yl)oxy-2-methylphenyl]-N-ethyl-N-methylmethan-imidamide]
- pest or weed control at 500 ppm [2]: ≥ 70%
- pest or weed control at 500 ppm [3]: ≥ 70%
- pest or weed control at 500 ppm [4]: ≥ 70%

- chromatographic logP [1, 7]: 1.27
- chromatographic logP [1, 8]: 4.12
Structure (SMILES): CCSc1nccc(Oc2cc(C)c(N=CN(C)CC)cc2C)n1 [I.027, N-ethyl-N'-[4-(2-ethylsulfanylpyrimidin-4-yl)oxy-2,5-dimethylphenyl]-N-methylmethanimid-amide]
- efficacy [2]: at least 70%
- efficacy [3]: at least 70%
- efficacy [4]: at least 70%

- chromatographic logP [1, 7]: 1.46
- chromatographic logP [1, 8]: 4.61
Structure (SMILES): CCCSc1nccc(Oc2cc(C)c(N=CN(C)CC)cc2C)n1 [I.029, N'-[2,5-dimethyl-4-(2-propylsulfanylpyrimidin-4-yl)oxyphenyl]-N-ethyl-N-methylmethanimid-amide]
- efficacy [2]: at least 70%
- efficacy [3]: at least 70%
- efficacy [4]: at least 70%
